Assay results taken from PubChem BioAssay AID1919010 (Molecular Pharmacology Branch, DTP, NCI, 2023).
pIC50: −log10 of the molar value.

Tested on: Hs578T complex spheroid growth, percent test/control
Test: Anticancer human tumor Hs578T cell line growth inhibition [AhR];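 further: luminescent viability signal as a proxy for spheroid growth; spheroids exposed to agents for one week after three days of growth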
Details: for pIC50: curve of first compound; for viability, T/C: stronger effect = lower value
How it was run: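 Complex tumor spheroids co-cultured with HUVEC and human MSC stroma; AhR antagonists tested in combination with standard-of-care and investigational agents. Top concentration at or near clinical Cmax (else 10 microM), half-log dilutions; growth expressed as percent test/control.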

[1] = second compound 0.1 µM, first compound 0.0316 µM
[2] = second compound 0.1 µM, first compound 0.1 µM
[3] = second compound 0.1 µM, first compound 0.316 µM
[4] = second compound 0.1 µM, first compound 1 µM
[5] = second compound 0.1 µM, first compound 3.16 µM
[6] = second compound 0.1 µM, first compound 10 µM
[7] = second compound 0.316 µM, first compound 0.0316 µM
[8] = second compound 0.316 µM, first compound 0.1 µM
[9] = second compound 0.316 µM, first compound 0.316 µM
[10] = second compound 0.316 µM, first compound 1 µM
[11] = second compound 0.316 µM, first compound 3.16 µM
[12] = second compound 0.316 µM, first compound 10 µM
[13] = second compound 1 µM, first compound 0.0316 µM
[14] = second compound 1 µM, first compound 0.1 µM
[15] = second compound 1 µM, first compound 0.316 µM
[16] = second compound 1 µM, first compound 1 µM
[17] = second compound 1 µM, first compound 3.16 µM
[18] = second compound 1 µM, first compound 10 µM
[19] = second compound 3.16 µM, first compound 0.0316 µM
[20] = second compound 3.16 µM, first compound 0.1 µM
[21] = second compound 3.16 µM, first compound 0.316 µM
[22] = second compound 3.16 µM, first compound 1 µM
[23] = second compound 3.16 µM, first compound 3.16 µM
[24] = second compound 3.16 µM, first compound 10 µM
[25] = second compound 10 µM, first compound 0.0316 µM
[26] = second compound 10 µM, first compound 0.1 µM
[27] = second compound 10 µM, first compound 0.316 µM
[28] = second compound 10 µM, first compound 1 µM
[29] = second compound 10 µM, first compound 3.16 µM
[30] = second compound 10 µM, first compound 10 µM
[31] = second compound 0.1 µM, first compound 0.00316 µM
[32] = second compound 0.1 µM, first compound 0.01 µM
[33] = second compound 0.316 µM, first compound 0.00316 µM
[34] = second compound 0.316 µM, first compound 0.01 µM
[35] = second compound 1 µM, first compound 0.00316 µM
[36] = second compound 1 µM, first compound 0.01 µM
[37] = second compound 3.16 µM, first compound 0.00316 µM
[38] = second compound 3.16 µM, first compound 0.01 µM
[39] = second compound 10 µM, first compound 0.00316 µM
[40] = second compound 10 µM, first compound 0.01 µM

SMILES	pIC50 (second compound 0.1 µM)	pIC50 (second compound 0.316 µM)	pIC50 (second compound 1 µM)	pIC50 (second compound 3.16 µM)	pIC50 (second compound 10 µM)	viability, T/C [1]	viability, T/C [2]	viability, T/C [3]	viability, T/C [4]	viability, T/C [7]	viability, T/C [8]	viability, T/C [9]	viability, T/C [10]	viability, T/C [13]	viability, T/C [14]	viability, T/C [15]	viability, T/C [19]	viability, T/C [20]	viability, T/C [25]	viability, T/C [26]	other results
CC(C)c1c(-c2ccccc2)nc2c(C#N)c[nH]n2c1=O + Cc1ccccc1N=Nc1ccc(NC(=O)c2ccnn2C)c(C)c1	< 5.00	< 5.00	< 5.00	< 5.00	< 5.00	102%	99.4%	108%	103%	105%	113%	119%	99%	103%	103%	106%	96%	94.7%	64.4%	66%	viability, T/C [5]: 91.4%; viability, T/C [6]: 100%; viability, T/C [11]: 112%; viability, T/C [12]: 104%; viability, T/C [16]: 101%; viability, T/C [17]: 105%; viability, T/C [18]: 96.6%; viability, T/C [21]: 97.1%; viability, T/C [22]: 88.1%; viability, T/C [23]: 91.1%; viability, T/C [24]: 96%; viability, T/C [27]: 70.1%; viability, T/C [28]: 71.2%; viability, T/C [29]: 69.4%; viability, T/C [30]: 67.6%
COc1ccc([C@@H](O)c2cc(-c3ncnc4cc(N5CCOCC5)ccc34)c(F)cc2Cl)nn1 + Cc1ccccc1N=Nc1ccc(NC(=O)c2ccnn2C)c(C)c1	5.47	5.32	5.48	5.54	5.51	106%	112%	92.8%	82.6%	116%	108%	99.4%	89.8%	107%	106%	100%	98.7%	93.2%	74.3%	68.2%	viability, T/C [5]: 49.5%; viability, T/C [6]: 32.2%; viability, T/C [11]: 58.4%; viability, T/C [12]: 31.8%; viability, T/C [16]: 80.3%; viability, T/C [17]: 50.8%; viability, T/C [18]: 34.5%; viability, T/C [21]: 86.9%; viability, T/C [22]: 77.8%; viability, T/C [23]: 46.1%; viability, T/C [24]: 30.5%; viability, T/C [27]: 73.9%; viability, T/C [28]: 63.1%; viability, T/C [29]: 50.1%; viability, T/C [30]: 32.9%
CC[C@@]1(O)C(=O)OCc2c1cc1n(c2=O)Cc2cc3c(CN(C)C)c(O)ccc3nc2-1 + Cc1cncc(-c2nc(NCCc3c[nH]c4ccccc34)c3ncn(C(C)C)c3n2)c1	< 7.00	< 7.00	< 7.00	7.83	> 9.50	81.7%	71.1%			80.5%	76.8%			74.6%	72.4%		44.5%	46.4%	6.14%	6.3%	viability, T/C (second compound 0.1 µM, first compound 0.000316 µM): 109%; viability, T/C (second compound 0.1 µM, first compound 0.001 µM): 112%; viability, T/C [31]: 95.3%; viability, T/C [32]: 91.8%; viability, T/C (second compound 0.316 µM, first compound 0.000316 µM): 113%; viability, T/C (second compound 0.316 µM, first compound 0.001 µM): 112%; viability, T/C [33]: 108%; viability, T/C [34]: 86.2%; viability, T/C (second compound 1 µM, first compound 0.000316 µM): 102%; viability, T/C (second compound 1 µM, first compound 0.001 µM): 121%; viability, T/C [35]: 98.2%; viability, T/C [36]: 86.9%; viability, T/C (second compound 3.16 µM, first compound 0.000316 µM): 68.3%; viability, T/C (second compound 3.16 µM, first compound 0.001 µM): 72.9%; viability, T/C [37]: 67.6%; viability, T/C [38]: 52.4%; viability, T/C (second compound 10 µM, first compound 0.000316 µM): 9.03%; viability, T/C (second compound 10 µM, first compound 0.001 µM): 8.61%; viability, T/C [39]: 7.61%; viability, T/C [40]: 6.12%
COc1cc(C2c3cc4c(cc3C(OC3OC5COC(C)OC5C(O)C3O)C3COC(=O)C23)OCO4)cc(OC)c1O (stereo not given) + Cc1cncc(-c2nc(NCCc3c[nH]c4ccccc34)c3ncn(C(C)C)c3n2)c1	< 5.00	< 5.00	< 5.00	5.73	> 7.50	108%	101%	89%	80.7%	108%	101%	94.3%	77%	96.9%	101%	93%	64%	64.1%	6.72%	7.12%	viability, T/C [5]: 88.5%; viability, T/C [6]: 63.9%; viability, T/C [11]: 76.9%; viability, T/C [12]: 61.3%; viability, T/C [16]: 85.8%; viability, T/C [17]: 73.2%; viability, T/C [18]: 63%; viability, T/C [21]: 61.5%; viability, T/C [22]: 49%; viability, T/C [23]: 49.3%; viability, T/C [24]: 37.8%; viability, T/C [27]: 5.72%; viability, T/C [28]: 3.77%; viability, T/C [29]: 4.01%; viability, T/C [30]: 4.25%
COc1cccc2c1C(=O)c1c(O)c3c(c(O)c1C2=O)CC(O)(C(=O)CO)CC3OC1CC(N)C(O)C(C)O1 (stereo not given) + Cc1cncc(-c2nc(NCCc3c[nH]c4ccccc34)c3ncn(C(C)C)c3n2)c1	6.25	6.32	6.44	6.50	> 7.50	90.3%	87.7%	73.5%	26.6%	97.1%	87.5%	68.2%	19.3%	92.9%	80.5%	56.7%	62.1%	52.9%	6.81%	6.99%	viability, T/C [5]: 3.41%; viability, T/C [6]: 3.51%; viability, T/C [11]: 3.19%; viability, T/C [12]: 3.19%; viability, T/C [16]: 12.3%; viability, T/C [17]: 2.37%; viability, T/C [18]: 2.76%; viability, T/C [21]: 50.1%; viability, T/C [22]: 5.82%; viability, T/C [23]: 1.65%; viability, T/C [24]: 1.75%; viability, T/C [27]: 11.9%; viability, T/C [28]: 0.55%; viability, T/C [29]: 0.74%; viability, T/C [30]: 0.83%
Nc1ncn(C2CC(O)C(CO)O2)c(=O)n1 (stereo not given) + Cc1cncc(-c2nc(NCCc3c[nH]c4ccccc34)c3ncn(C(C)C)c3n2)c1	< 6.00	< 6.00	< 6.00	< 6.00	> 8.50	111%	112%	108%	106%	119%	111%	106%	102%	112%	108%	112%	82.6%	74.4%	6.65%	6.53%	viability, T/C [31]: 105%; viability, T/C [32]: 114%; viability, T/C [33]: 116%; viability, T/C [34]: 110%; viability, T/C [35]: 109%; viability, T/C [36]: 105%; viability, T/C [16]: 108%; viability, T/C [37]: 73.1%; viability, T/C [38]: 76.2%; viability, T/C [21]: 77.4%; viability, T/C [22]: 75.7%; viability, T/C [39]: 6.02%; viability, T/C [40]: 6.62%; viability, T/C [27]: 6.26%; viability, T/C [28]: 6.45%
